Results reported in paper PMC10733197, “Utilization of Rosuvastatin and Endogenous Biomarkers in Evaluating the Impact of Ritlecitinib on BCRP, OATP1B1, and OAT3 Transporter Activity” (Pharmaceutical Research, 2023).

What was measured:
[1] = human, in vivo
Procedure: This was a Phase 1, 2-period fixed-sequence, multiple-dose, open-label study of the effect of ritlecitinib on the pharmacokinetics and renal clearance of a single, oral dose of rosuvastatin in healthy participants (Fig. 1). The safety and tolerability of rosuvastatin when coadministered with ritlecitinib was also evaluated.
In Period 1 on Day 1, following an overnight fast of at least 10 h, participants received a single oral administration of rosuvastatin 10 mg tablet. Period 1 was immediately followed by Period 2 with no washout. In Period 2 (coadministration), participants received oral ritlecitinib 200 mg once daily (QD) under non-fasting conditions for 7 days. On the morning of Day 8, a single dose of rosuvastatin 10 mg tablet was administered orally within approximately 5 min after administration of a ritlecitinib 200 mg dose under fasting conditions. On Days 9 and 10, participants continued to receive oral ritlecitinib 200 mg QD under non-fasting conditions.

CYP3A = details: cited from earlier work
CYP1A2 = details: cited from earlier work
[2] = parameters: method as in data not published; details: ref data not published, cited from earlier work
BCRP = molecular target: T1, BCRP (Homo sapiens, UniProt Q9UNQ0); test: BCRP inhibition in BCRP-expressing membrane vesicles with rosuvastatin as substrate; assay type: biochemical; details: for [I]2/IC50 ratio (G-value): ritlecitinib 200 mg, cutoff = 10
T1 sequence (Q9UNQ0 1-655): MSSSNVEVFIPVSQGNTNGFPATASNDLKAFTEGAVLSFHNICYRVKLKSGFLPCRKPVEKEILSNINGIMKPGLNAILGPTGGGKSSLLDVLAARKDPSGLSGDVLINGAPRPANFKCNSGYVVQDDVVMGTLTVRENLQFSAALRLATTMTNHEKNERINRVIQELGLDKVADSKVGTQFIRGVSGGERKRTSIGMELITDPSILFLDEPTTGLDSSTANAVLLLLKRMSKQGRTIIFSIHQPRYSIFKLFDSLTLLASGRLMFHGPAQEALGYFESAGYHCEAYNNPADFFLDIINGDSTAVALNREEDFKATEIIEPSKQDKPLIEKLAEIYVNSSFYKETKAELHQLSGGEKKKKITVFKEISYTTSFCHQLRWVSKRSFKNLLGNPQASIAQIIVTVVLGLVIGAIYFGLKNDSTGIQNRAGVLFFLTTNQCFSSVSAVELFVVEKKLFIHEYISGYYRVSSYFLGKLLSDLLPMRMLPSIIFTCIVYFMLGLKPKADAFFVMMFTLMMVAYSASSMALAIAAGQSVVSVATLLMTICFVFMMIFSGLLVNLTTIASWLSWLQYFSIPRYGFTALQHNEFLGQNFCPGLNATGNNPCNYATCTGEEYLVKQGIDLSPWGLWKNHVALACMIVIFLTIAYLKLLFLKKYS
Procedure: As described previously, BCRP inhibition by ritlecitinib was measured using BCRP-expressing membrane vesicles with non-labeled rosuvastatin as substrate.
In all cases, ritlecitinib (0.018 to 1000 µM) and metabolite M2 (0.018 to 300 µM) was tested over a wide range of final concentrations dissolved in dimethyl sulfoxide (the final concentration of dimethyl sulfoxide in the assays was 1% v/v). For each transporter, the IC50 was estimated using a four-parameter logistic equation (Eq. 1) using GraphPad Prism software (GraphPad Software Inc, La Jolla, CA).1 %UptakeActivity=Bottom+(Top-Bottom)/1+10^(LogIC50-inhib*HillSlope)

- Triggers Drug Interaction Cutoff (BCRP; [I]2/IC50 cutoff = 10): Yes
- IC50 (BCRP; intestinal BCRP, RSV 0.2 µM as substrate, membrane vesicles, mean ± SD, n = 3): 27 ± 2 µM
- [I]2/IC50 ratio (G-value) (BCRP): 104
- [I]2/IC50 ratio (G-value) (BCRP; listed as ritlecitinib): ~ 100
Compound: C=CC(=O)N1C[C@H](Nc2ncnc3[nH]ccc23)CC[C@@H]1C [Ritlecitinib, ritlecitinib]
- serious AEs, severe AEs, dose reductions or discontinuations due to AEs [1]: no serious adverse events
- inhibition of CYP3A (CYP3A; classification in words): moderate inhibitor
- contribution of CYP3A pathway to metabolism of ritlecitinib (CYP3A; ref data not published): < 25%
- inhibition of CYP1A2 (CYP1A2; classification in words): moderate inhibitor
- contribution of CYP1A2 pathway to metabolism of ritlecitinib (CYP1A2; ref data not published): < 25%
- steady-state accumulation ratio of AUC ([2]; 200 mg QD regimen, FIH study): 1.8
- half-life (arithmetic mean) ([2]; 200 mg single dose, first-in-human study): 1.75 h
- steady-state of PK reached at ([2]; QD regimens, FIH study): 4 days
